Reference: patent US11702442B2, “Cyclic dinucleotide compounds as sting agonists” (The Regents of the University of California, priority 2019, dated 2023)

Columns and labels:
STING pathway [1] = assay: IFN-β mRNA production in RAW 264.7 cells by RT-qPCR; format: cell-based, murine
Method: FIGS. 3A-3C provide IFN data. […] RAW 264.7 cells were transfected with 1, 5, 10 μM of c-di-GMP, c-di-^tzGMP, c-G^thGMP, c-di-G^thGMP and c-G^tzGMP, and incubated for 2, 4, 6 h before being lysed by TRIzol. RNA purification and RT-qPCR were conducted following the protocol described in the Experimental Section. FIG. 3B show IFN response after 2, 4, 6 h of incubation with 5 μM of CDNs. […] Two independent assays were performed in triplicates (n=2). Error bars indicate SD. See Yi et al, Tuning the Innante Immune Response to Cyclic Dinucleotides by Using Atomic Mutagenesis, ChemBioChem, Volume 21 (2020).
As most synthetic c-di-GMP analogues activated IRF3, the inventors analyzed their dose and time dependency for inducing IFN-β mRNA production by using RT-qPCR. RAW 264.7 cells were transfected with 1, 5 and 10 μM of CDNs as described above and incubated for 2, 4 and 6 h. Total RNA was isolated and used for RT-qPCR. As shown in FIGS. 3A-3B, c-di-GMP induced the most IFN-β mRNA production 4 h post transfection, whereas the highest response was observed after 2 h for c-di-tzGMP, c-GthGMP, and c-GtzGMP.
RT-qPCR. RAW 264.7 cells were plated on 48-well plates (2.5×10^5 cells per well) and transfected with CDN using the same method as above after 48 h of incubation at 37° C. Cells were then incubate with regular growth medium for designated time, and total RNA was isolated with TRIzol® reagent and purified with RNeasy mini kit (Qiagen) following the manufacturer's protocol. Following elution, RNA yields were evaluated using a Nanodrop spectrophotometer (Nanodrop technologies). RNA samples were converted to cDNA with SuperScript III First-Strand Synthesis kit (Invitrogen) with random hexamers following the manufacturer's protocol. Quantitative PCR (SYBR Green) analysis was performed in duplicates on an Applied Biosystems 7300 Real-time PCR system (Invitrogen). Transcription level of IFN-β gene of each sample was normalized to housekeeping gene TBP and then to untreated samples (UT) using the delta-delta CT method.

STING pathway [2] = assay: IRF3 phosphorylation in RAW 264.7 cells (immunoblot pIRF3 vs β-actin); format: cell-based, murine; conditions: RAW 264.7, 1, 5 and 10 μM CDN, 2 h after transfection
Method: FIGS. 2A-2B show IRF3 phosphorylation induced by c-di-GMP and its analogues. […] 1, 5 and 10 μM of each CDN was used to transfect RAW 264.7 cells. Cells were lysed with NP-40 lysis buffer 2 h post transfection, 20 μg of total protein was loaded on SDS-polyacrylamide gel. Proteins were transferred to PVDF membrane after gel electrophoresis, and immunoblotted against pIRF3 and β-actin. […] The y-axis indicates relative intensity of pIRF3 compare to β-actin.
To analyze the immunostimulatory effects of all synthetic CDNs in greater detail, RAW 264.7 cells were treated with various concentrations of c-di-GMP, c-di-tzGMP, c-di-thGMP, c-GthGMP and c-GtzGMP and the phosphorylation of IRF3 to pIRF3 was evaluated. CDNs were thus transfected into RAW 264.7 murine cells with digitonin as described in previous studies.[7b,16] Cells were then lysed with NP-40 buffer 2 h after transfection, and total protein was collected for immunoblotting against phosphorylated IRF3 (pIRF3) and β-actin. […] Two other biological replicates produced similar trends (See FIG. S2 in Yi et al, ChemBioChem, Volume 21 (2020)).
Immunoblotting. RAW 264.7 cells were plated on 24-well plates (5×10^5 cells per well) and incubate at 37° C. for 48 h. Cells were then transfected with 1-10 μM of CDN in a permeabilization buffer containing 10 μg/mL digitonin, 50 mM HEPES, pH 7, 100 mM KCl, 3 mM MgCl2, 85 mM sucrose, 1 mM ATP, 0.1 mM DTT, 0.2% BSA for 30 mins at 37° C., then incubated with regular growth medium for 2 h. Cells were lysed with NP-40 lysis buffer containing protease inhibitor cocktail (Roche), PhosSTOP (Roche) and PMSF, and total protein was collected and quantified by BCA assay. Protein extracts were resolved by SDS-PAGE with 7.5% gel and transferred to PVDF membrane. Proteins were detected with the following primary antibodies: rabbit anti-pIRF3 monoclonal antibody (Cell Signaling Technology), mouse anti-β actin monoclonal antibody (Sigma-Aldrich).

rocR = target: T1, rocR (Pseudomonas aeruginosa, UniProt Q9HX69); assay: rocR-mediated CDN hydrolysis monitored by HPLC; format: biochemical, P. aeruginosa
T1 construct: made in house; host or cells: Escherichia coli BL21(DE3)
Description: [1a,27] rocR is a PDE that contains an EAL domain and specifically recognizes and cleaves c-di-GMP into the linear dinucleotide pGpG. […] [28a,29]
RocR is reported to follow Michaelis-Menten kinetics. [27c,28a] Scheme 2a was therefore used to analyze the reaction kinetics, where k1 and k−1 describe the enzyme/substrate association and dissociation, respectively, while k2 reflects the cleavage reaction. Equations (10)-(13) were thus used to extract the rate constants. When “asymmetrical” mixed c-di-GMP analogues are treated with rocR, the enzyme may, in principle, recognize and cleave either phosphodiester bonds, producing pN1pN2 and pN2pN1. Assuming the two products result from different binding orientation of the heterodimeric CDNs, Scheme 2b is therefore introduced to model the cleavage reactions, where k1, k−1 and k2 reflect the association/dissociation and cleavage of the heterodimeric CDN in one orientation, respectively, and k3, k−3 and k4 reflect the other. Equations (14)-(19) were used to extract the rate constants.
Equations(10)-(19) d[S]/dt=−k1[E][S]+k−1[ES] (10) d[E]/dt=−k1[E][S]+k−1[ES]+k2[ES] (11) d[P]/dt=k2[ES] (12) d[ES]/dt=k1[E][S]−k−1[ES]−k2[ES] (13) d[S]/dt=−k1[E][S]+k−1[ES1]−k3[E][S]+k−3[ES2] (14) d[P1]/dt=k2[ES1] (15) d[P2]/dt=k4[ES2] (16) d[E]/dt=−(k1+k3)[E][S]+(k−1+k2)[ES1]+[…][ES2]] (17) d[ES1]/dt=k1[E][S]−k−1[ES1]−k2[ES1] (18) d[ES2]/dt=k3[E][S]−k−3[ES2]−k4[ES2] (19)
CDN hydrolysis with rocR. […] of CDN was incubated with 100 nM of rocR in a buffer containing 100 mM Tris-HCI, pH 8, 20 mM KCI, 25 mM MgCl2 at 37° C. Aliquots of the reaction mixture were taken out at designated time points and quenched with 100 mM CaCl2. All aliquots were filtered before subjected to reverse-phase HPLC analysis. The reaction mixture was separated by Sepax Bio C-18 column (250×10 mm, 5 µm particle size) with a gradient of 0.1-15% of 10 mM NH4OAc, pH7 in Me0H in 12 minutes at 25° C. or 50° C. (only for reactions of c-GtzGMP and c-di-tzGMP) on an Agilent 1200 series HPLC system (Agilent Technologies).
Data Analysis and curve fitting. […] The relative concentrations were plotted against time.

T1 sequence (Q9HX69 whole entry): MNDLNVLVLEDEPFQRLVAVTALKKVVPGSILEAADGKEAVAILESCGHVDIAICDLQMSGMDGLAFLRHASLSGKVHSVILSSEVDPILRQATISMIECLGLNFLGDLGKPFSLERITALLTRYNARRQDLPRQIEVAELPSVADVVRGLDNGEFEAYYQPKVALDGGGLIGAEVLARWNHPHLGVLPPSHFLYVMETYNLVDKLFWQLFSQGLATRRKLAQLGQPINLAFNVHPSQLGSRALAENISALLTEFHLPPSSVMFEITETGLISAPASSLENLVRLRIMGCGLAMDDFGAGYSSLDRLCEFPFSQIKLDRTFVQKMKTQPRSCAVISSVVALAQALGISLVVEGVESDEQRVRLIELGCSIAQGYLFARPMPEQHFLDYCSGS

## Nc1nc2c([C@@H]3O[C@@H]4COP(=O)(O)O[C@H]5[C@@H](O)[C@H](n6cnc7c(=O)[nH]c(N)nc76)O[C@@H]5COP(=O)(O)O[C@H]4[C@H]3O)snc2c(=O)[nH]1 [c-G^tzGMP]
STING pathway [1]; RAW 264.7, 1, 5, 10 μM CDN, 2, 4, 6 h
  IFN-β mRNA production / IFN response: earlier and stronger maximum IFN-β response compared to the native c-di-GMP
STING pathway [1]; RAW 264.7, 1, 5 and 10 μM CDN, 2, 4 and 6 h tested
  time post transfection of highest IFN-β mRNA production: 2 h
STING pathway [1]; RAW 264.7, RT-qPCR, FIG. 3
  order of IFN-β induction: c-GthGMP>c-di-tzGMP>c-GtzGMP>c-di-GMP>c-di-thGMP
STING pathway [2]
  IRF3 phosphorylation (pIRF3), concentration dependence: Increasing amounts of phosphorylated IRF3
rocR; 100 nM rocR, 37° C.
  k2 (cleavage reaction): 3.07 ± 0.25 s⁻¹
rocR; 100 nM rocR, 37° C., Table 3
  k2: 0.096 ± 0.091 s⁻¹
  k3: 3.07 ± 0.25 s⁻¹
rocR; 100 nM rocR, 37° C., association in second orientation of heterodimeric CDN
  k3: 1.8e+06 ± 100000 M⁻¹ s⁻¹
rocR; 100 nM rocR, 37° C., cleavage in second orientation
  k4: 0.34 ± 0.01 s⁻¹
rocR; 100 nM rocR, 37° C., dissociation in second orientation
  k−3: 0.135 ± 0.007 s⁻¹
rocR; 100 nM rocR, 37° C., enzyme/substrate association
  k1: 1.85e+06 ± 70000 M⁻¹ s⁻¹
rocR; FIG. 10F
  order of gradually reduced rocR hydrolysis rate: c-di-GMP, c-di-^tzGMP, c-G^tzGMP, c-G^thGMP and lastly c-di-^thGMP
rocR; Scheme 2b
  final percentage of product P1: 58%
  final percentage of product P2: 42%
rocR; mixed CDNs, HPLC
  products of rocR-mediated cleavage: two products in nearly the same amount
